1 compound from PMC6054692, “Library screening of cell-penetrating peptide for BY-2 cells, leaves of Arabidopsis, tobacco, tomato, poplar, and rice callus” (Scientific Reports, 2018) can be followed below.

The data set has as its system BY-2 cells. Description: Cell penetration efficiency into BY-2 suspension culture cells (CLSM of TAMRA-labeled CPP). The conditions noted are these: negative control without CPP, 15 min, 1 h, 3 h and 6 h at 26 °C, BY-2 cells 3 days after subculture.

Protocol: To evaluate the cell penetration efficiency of the 55 CPPs into BY-2 suspension culture cells, we first optimized the CPP concentration and cell density using BP100 as a model CPP. The cell penetration efficiency of CPP into BY-2 cells was determined based on the ratio of numbers of cell with and without TAMRA signals of CPP by confocal laser scanning microscopy (CLSM) (Fig. 2). […] Thus, we used the BY-2 cells at 3 days after subculture as well as the incubation time of 3 hours for all the experiments in this study.
Suspension-cultured tobacco (Nicotiana tabacum) cv. BY-2 cells were provided by the RIKEN Bio Resource Center. […]
The penetration efficiency of CPPs into BY-2 suspension cells and young true leaves of N. benthamiana, A. thaliana, Moneymaker tomato, O. sativa Nipponbare, and poplar, and O. sativa callus was determined using confocal laser scanning microscopy (CLSM, ZeissLSM 700, Carl Zeiss, Oberkochen, Germany). The intracellular localization of TAMRA-labeled CPP was observed using excitation at 555 nm for the detection of TAMRA fluorescence. The total number of cells was counted using differential interfering contrast images. The efficiency was determined as follows: Cellpenetrationefficiency(%)=(thenumberofstainedcells)/(thenumberoftotalcells)×100 Various BY-2 cell concentrations (230 to >1000 cells/µL) of BY-2 cells were tested to determine the optimal cell concentration. […]

For the compound `CN(C)c1ccc2c(-c3ccc(C(=O)O)cc3C(=O)[O-])c3ccc(N(C)C)cc3[o+]c2c1` [TAMRA, 5-carboxytetramethylrhodamine], the “Penetration of TAMRA alone into BY-2 cells” value is reported as “could not penetrate”.
